Test results reported in US12723063B2, “GIPR-agonist compounds” (Eli Lilly and Company, priority 2019, dated 2026).
*1 amine or outer side, *2 acyl side, *3 side chain or, on linkers, in order; H or OH if unused. Where a SMILES comes first, the peptide text is derived from it. Side-chain parts run from the residue outwards. [ ]: non-standard residue; d: D form. The star is where a group is joined. C20 diacid = O=C(O)CCCCCCCCCCCCCCCCCCC(=O)*; C18 diacid = O=C(O)CCCCCCCCCCCCCCCCC(=O)*; αMePhe(2-F) = C[C@](N)(Cc1ccccc1F)C(=O)O; γGlu = O=C(O)[C@H](CCC(=O)[*:2])N[*:1]; 4Pal = N[C@@H](Cc1ccncc1)C(=O)O; αMeL = CC(C)C[C@](C)(N)C(=O)O; Iva = CC[C@](C)(N)C(=O)O; Orn = NCCC[C@H](N)C(=O)O; AEEA = NCCOCCOCC(=O)O; Aib = CC(C)(N)C(=O)O

Legend:
Assay in all cases: cAMP functional assay (HTRF) in HEK293 cells in presence of 0.1% casein
Format in all cases: cell-based
[1] = target: T1, human glucose-dependent insulinotropic peptide receptor (GIPR) (Homo sapiens, UniProt P48546); conditions: HEK293 cells expressing human GIPR, geometric mean, read-out: hGIPR cAMP Rel EC50 nM (SEM, n)
T1 construct: expressed in transfected cells; host or cells: HEK293
T1 sequence (P48546 22-466): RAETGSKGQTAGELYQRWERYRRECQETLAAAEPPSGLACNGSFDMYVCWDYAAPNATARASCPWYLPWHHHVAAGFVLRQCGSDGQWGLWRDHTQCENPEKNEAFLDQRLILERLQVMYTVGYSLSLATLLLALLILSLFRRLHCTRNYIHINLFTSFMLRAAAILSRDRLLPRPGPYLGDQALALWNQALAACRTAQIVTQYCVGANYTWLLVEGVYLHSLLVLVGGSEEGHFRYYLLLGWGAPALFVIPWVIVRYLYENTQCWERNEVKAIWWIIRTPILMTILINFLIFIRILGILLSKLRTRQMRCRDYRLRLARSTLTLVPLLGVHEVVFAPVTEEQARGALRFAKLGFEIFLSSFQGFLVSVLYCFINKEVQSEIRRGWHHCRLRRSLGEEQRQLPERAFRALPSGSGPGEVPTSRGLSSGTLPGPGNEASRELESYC

[2] = target: T2, human GLP-1 receptor (GLP-1R) (Homo sapiens, UniProt P43220); conditions: HEK293 cells expressing human GLP-1R, geometric mean, read-out: hGLP1R cAMP Rel EC50 nM (SEM, n)
T2 construct: expressed in transfected cells; host or cells: HEK293
T2 sequence (P43220 24-463): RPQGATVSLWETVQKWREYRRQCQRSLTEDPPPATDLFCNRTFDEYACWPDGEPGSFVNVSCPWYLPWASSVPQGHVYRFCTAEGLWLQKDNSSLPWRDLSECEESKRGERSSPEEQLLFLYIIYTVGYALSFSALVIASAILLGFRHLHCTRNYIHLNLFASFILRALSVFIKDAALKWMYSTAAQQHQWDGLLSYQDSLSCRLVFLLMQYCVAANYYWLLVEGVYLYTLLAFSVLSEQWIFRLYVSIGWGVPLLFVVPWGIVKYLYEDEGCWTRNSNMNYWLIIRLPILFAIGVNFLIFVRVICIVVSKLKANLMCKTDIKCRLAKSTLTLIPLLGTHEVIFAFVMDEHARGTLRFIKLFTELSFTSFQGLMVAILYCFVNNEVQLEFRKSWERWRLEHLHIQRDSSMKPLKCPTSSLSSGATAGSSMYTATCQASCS

[3] = target: T3, human glucagon receptor (GcgR) (Homo sapiens, UniProt P47871); conditions: HEK293 cells expressing human GcgR, geometric mean, read-out: hGcgR cAMP Rel EC50 nM (SEM, n)
T3 construct: expressed in transfected cells; host or cells: HEK293
T3 sequence (P47871 26-477): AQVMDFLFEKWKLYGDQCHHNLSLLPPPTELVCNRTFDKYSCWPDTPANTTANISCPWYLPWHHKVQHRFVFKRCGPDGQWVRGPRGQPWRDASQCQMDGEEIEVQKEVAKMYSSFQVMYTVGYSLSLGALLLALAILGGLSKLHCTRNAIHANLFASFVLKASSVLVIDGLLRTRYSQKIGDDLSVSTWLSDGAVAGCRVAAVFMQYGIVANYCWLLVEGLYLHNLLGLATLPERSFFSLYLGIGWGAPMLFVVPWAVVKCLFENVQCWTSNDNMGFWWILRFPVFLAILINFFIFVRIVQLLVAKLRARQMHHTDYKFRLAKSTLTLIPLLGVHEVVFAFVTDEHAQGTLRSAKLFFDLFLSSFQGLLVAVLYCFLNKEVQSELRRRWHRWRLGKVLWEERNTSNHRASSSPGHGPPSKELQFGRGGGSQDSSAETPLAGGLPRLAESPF

SMILES	EC50 [1]	EC50 [2]	EC50 [3]
CC[C@H](C)[C@H](NC(=O)[C@H](CO)NC(=O)[C@H](Cc1ccc(O)cc1)NC(=O)[C@H](CC(=O)O)NC(=O)[C@H](CO)NC(=O)[C@@H](NC(=O)[C@](C)(Cc1ccccc1F)NC(=O)[C@@H](NC(=O)CNC(=O)[C@H](CCC(=O)O)NC(=O)C(C)(C)NC(=O)[C@@H](N)Cc1ccc(O)cc1)[C@@H](C)O)[C@@H](C)CC)C(=O)N[C@@H](CC(C)C)C(=O)N[C@@H](CC(C)C)C(=O)N[C@@H](CC(=O)O)C(=O)N[C@@H](CCCCN)C(=O)N[C@H](C(=O)N[C@@H](Cc1c[nH]cn1)C(=O)N[C@@H](CCC(N)=O)C(=O)NC(C)(C)C(=O)N[C@@H](CC(=O)O)C(=O)N[C@@H](Cc1ccccc1)C(=O)N[C@H](C(=O)N[C@@H](CCC(=O)O)C(=O)N[C@@H](Cc1ccncc1)C(=O)N[C@@H](CCCCNC(=O)COCCOCCNC(=O)COCCOCCNC(=O)CC[C@H](NC(=O)CCCCCCCCCCCCCCCCCCC(=O)O)C(=O)O)C(=O)N[C@@H](CC(C)C)C(=O)N[C@@H](CCC(=O)O)C(=O)N[C@@H](C)C(=O)NCC(=O)N1CCC[C@H]1C(=O)N[C@@H](CO)C(=O)N[C@@H](CO)C(=O)NCC(=O)N[C@@H](C)C(=O)N1CCC[C@H]1C(=O)N1CCC[C@H]1C(=O)N1CCC[C@H]1C(=O)N[C@@H](CO)C(N)=O)C(C)C)[C@@H](C)CC [Example 120] (H-Y[Aib]EGT[αMePhe(2-F)]ISDYSILLDKIHQ[Aib]DFVE[4Pal]K([AEEA-AEEA-γGlu-C20 diacid])LEAGPSSGAPPPS-NH2)	0.0228 nM	> 5000 nM	> 5000 nM
CC[C@H](C)[C@H](NC(=O)[C@H](CO)NC(=O)[C@H](Cc1ccc(O)cc1)NC(=O)[C@H](CC(=O)O)NC(=O)[C@H](CO)NC(=O)[C@@H](NC(=O)[C@](C)(CC)NC(=O)[C@@H](NC(=O)CNC(=O)[C@H](CCC(=O)O)NC(=O)C(C)(C)NC(=O)[C@@H](N)Cc1ccc(O)cc1)[C@@H](C)O)[C@@H](C)CC)C(=O)N[C@@](C)(CC(C)C)C(=O)N[C@@H](CC(C)C)C(=O)N[C@@H](CC(=O)O)C(=O)N[C@@H](CCCN)C(=O)N[C@@H](CCCCNC(=O)COCCOCCNC(=O)COCCOCCNC(=O)CC[C@H](NC(=O)CCCCCCCCCCCCCCCCCCC(=O)O)C(=O)O)C(=O)N[C@@H](Cc1c[nH]cn1)C(=O)N[C@@H](CCC(N)=O)C(=O)NC(C)(C)C(=O)N[C@@H](CC(=O)O)C(=O)N[C@@H](Cc1ccccc1)C(=O)N[C@H](C(=O)N[C@@H](CCC(=O)O)C(=O)N[C@@H](Cc1ccncc1)C(=O)N[C@@H](CC(C)C)C(=O)N[C@@H](CC(C)C)C(=O)N[C@@H](CCC(=O)O)C(=O)N[C@H](C(=O)NCC(=O)N1CCC[C@H]1C(=O)N[C@@H](CO)C(=O)N[C@@H](CO)C(=O)NCC(=O)N[C@@H](C)C(=O)N1CCC[C@H]1C(=O)N1CCC[C@H]1C(=O)N1CCC[C@H]1C(=O)N[C@@H](CO)C(N)=O)[C@@H](C)O)C(C)C [Example 77] (H-Y[Aib]EGT[Iva]ISDYSI[αMeL]LD[Orn]K([AEEA-AEEA-γGlu-C20 diacid])HQ[Aib]DFVE[4Pal]LLETGPSSGAPPPS-NH2)	0.0265 nM	> 5000 nM	2660 nM
CC[C@H](C)[C@H](NC(=O)[C@H](CO)NC(=O)[C@H](Cc1ccc(O)cc1)NC(=O)[C@H](CC(=O)O)NC(=O)[C@H](CO)NC(=O)[C@@H](NC(=O)[C@](C)(CC)NC(=O)[C@@H](NC(=O)CNC(=O)[C@H](CCC(=O)O)NC(=O)C(C)(C)NC(=O)[C@@H](N)Cc1ccc(O)cc1)[C@@H](C)O)[C@@H](C)CC)C(=O)N[C@@](C)(CC(C)C)C(=O)N[C@@H](CC(C)C)C(=O)N[C@@H](CC(=O)O)C(=O)N[C@@H](CCCCN)C(=O)N[C@@H](CCCCNC(=O)COCCOCCNC(=O)COCCOCCNC(=O)CC[C@H](NC(=O)CCCCCCCCCCCCCCCCCCC(=O)O)C(=O)O)C(=O)N[C@@H](Cc1c[nH]cn1)C(=O)N[C@@H](CCC(N)=O)C(=O)NC(C)(C)C(=O)N[C@@H](CC(=O)O)C(=O)N[C@@H](Cc1ccccc1)C(=O)N[C@H](C(=O)N[C@@H](CCC(=O)O)C(=O)N[C@@H](Cc1ccncc1)C(=O)N[C@@H](CC(C)C)C(=O)N[C@@H](CC(C)C)C(=O)N[C@@H](CCC(=O)O)C(=O)N[C@@H](C)C(=O)NCC(=O)N1CCC[C@H]1C(=O)N[C@@H](CO)C(=O)N[C@@H](CO)C(=O)NCC(=O)N[C@@H](C)C(=O)N1CCC[C@H]1C(=O)N1CCC[C@H]1C(=O)N1CCC[C@H]1C(=O)N[C@@H](CO)C(N)=O)C(C)C [Example 88] (H-Y[Aib]EGT[Iva]ISDYSI[αMeL]LDKK([AEEA-AEEA-γGlu-C20 diacid])HQ[Aib]DFVE[4Pal]LLEAGPSSGAPPPS-NH2)	0.0031 nM	> 5000 nM	1670 nM
CC[C@H](C)[C@H](NC(=O)[C@H](CO)NC(=O)[C@H](Cc1ccc(O)cc1)NC(=O)[C@H](CC(=O)O)NC(=O)[C@H](CO)NC(=O)[C@@H](NC(=O)[C@](C)(Cc1ccccc1F)NC(=O)[C@@H](NC(=O)CNC(=O)[C@H](CCC(=O)O)NC(=O)C(C)(C)NC(=O)[C@@H](N)Cc1ccc(O)cc1)[C@@H](C)O)[C@@H](C)CC)C(=O)N[C@@H](C)C(=O)N[C@@H](CC(C)C)C(=O)N[C@@H](CC(=O)O)C(=O)N[C@@H](CCCCN)C(=O)N[C@@H](CCCCNC(=O)COCCOCCNC(=O)COCCOCCNC(=O)CC[C@H](NC(=O)CCCCCCCCCCCCCCCCCCC(=O)O)C(=O)O)C(=O)N[C@@H](Cc1c[nH]cn1)C(=O)N[C@@H](CCC(N)=O)C(=O)NC(C)(C)C(=O)N[C@@H](CCC(=O)O)C(=O)N[C@@H](Cc1ccccc1)C(=O)N[C@H](C(=O)N[C@@H](CC(N)=O)C(=O)N[C@@H](Cc1c[nH]c2ccccc12)C(=O)N[C@@H](CC(C)C)C(=O)N[C@@H](CC(C)C)C(=O)N[C@@H](C)C(=O)NCC(=O)NCC(=O)N1CCC[C@H]1C(=O)N[C@@H](CO)C(=O)N[C@@H](CO)C(=O)NCC(=O)N[C@@H](C)C(=O)N1CCC[C@H]1C(=O)N1CCC[C@H]1C(=O)N1CCC[C@H]1C(=O)N[C@@H](CO)C(N)=O)C(C)C [Example 26] (H-Y[Aib]EGT[αMePhe(2-F)]ISDYSIALDKK([AEEA-AEEA-γGlu-C20 diacid])HQ[Aib]EFVNWLLAGGPSSGAPPPS-NH2)	0.00991 nM	5.69 nM	> 5000 nM
CC[C@H](C)[C@H](NC(=O)[C@H](CCCN)NC(=O)[C@H](CC(=O)O)NC(=O)[C@H](CC(C)C)NC(=O)[C@](C)(CC(C)C)NC(=O)[C@@H](NC(=O)[C@H](CO)NC(=O)[C@H](Cc1ccc(O)cc1)NC(=O)[C@H](CC(=O)O)NC(=O)[C@H](CO)NC(=O)[C@@H](NC(=O)[C@H](Cc1ccccc1)NC(=O)[C@@H](NC(=O)CNC(=O)[C@H](CCC(=O)O)NC(=O)C(C)(C)NC(=O)[C@@H](N)Cc1ccc(O)cc1)[C@@H](C)O)[C@@H](C)CC)[C@@H](C)CC)C(=O)N[C@@H](Cc1c[nH]cn1)C(=O)N[C@@H](CCC(N)=O)C(=O)NC(C)(C)C(=O)N[C@@H](CCC(=O)O)C(=O)N[C@@H](Cc1ccccc1)C(=O)N[C@H](C(=O)N[C@@H](CCC(=O)O)C(=O)N[C@@H](Cc1ccc(O)cc1)C(=O)N[C@@H](CCCCNC(=O)COCCOCCNC(=O)COCCOCCNC(=O)CC[C@H](NC(=O)CCCCCCCCCCCCCCCCCCC(=O)O)C(=O)O)C(=O)N[C@@H](CC(C)C)C(=O)N[C@@H](CCC(=O)O)C(=O)N[C@@H](C)C(=O)NCC(=O)N1CCC[C@H]1C(=O)N[C@@H](CO)C(=O)N[C@@H](CO)C(=O)NCC(=O)N[C@@H](C)C(=O)N1CCC[C@H]1C(=O)N1CCC[C@H]1C(=O)N1CCC[C@H]1C(=O)N[C@@H](CO)C(N)=O)C(C)C [Example 104] (H-Y[Aib]EGTFISDYSI[αMeL]LD[Orn]IHQ[Aib]EFVEYK([AEEA-AEEA-γGlu-C20 diacid])LEAGPSSGAPPPS-NH2)	0.0165 nM	> 5000 nM	> 5000 nM
CC[C@H](C)[C@H](NC(=O)[C@H](CCCCN)NC(=O)[C@H](CC(=O)O)NC(=O)[C@H](CC(C)C)NC(=O)[C@](C)(CC(C)C)NC(=O)[C@@H](NC(=O)[C@H](CO)NC(=O)[C@H](Cc1ccc(O)cc1)NC(=O)[C@H](CC(=O)O)NC(=O)[C@H](CO)NC(=O)[C@@H](NC(=O)[C@H](Cc1ccccc1)NC(=O)[C@@H](NC(=O)CNC(=O)[C@H](CCC(=O)O)NC(=O)C(C)(C)NC(=O)[C@@H](N)Cc1ccc(O)cc1)[C@@H](C)O)[C@@H](C)CC)[C@@H](C)CC)C(=O)N[C@@H](Cc1c[nH]cn1)C(=O)N[C@@H](CCC(N)=O)C(=O)NC(C)(C)C(=O)N[C@@H](CC(=O)O)C(=O)N[C@@H](Cc1ccccc1)C(=O)N[C@H](C(=O)N[C@@H](CCC(=O)O)C(=O)N[C@@H](Cc1ccncc1)C(=O)N[C@@H](CCCCNC(=O)COCCOCCNC(=O)COCCOCCNC(=O)CC[C@H](NC(=O)CCCCCCCCCCCCCCCCC(=O)O)C(=O)O)C(=O)N[C@@H](CC(C)C)C(=O)N[C@@H](CCC(=O)O)C(=O)NCC(=O)NCC(=O)N1CCC[C@H]1C(=O)N[C@@H](CO)C(=O)N[C@@H](CO)C(=O)NCC(=O)N[C@@H](C)C(=O)N1CCC[C@H]1C(=O)N1CCC[C@H]1C(=O)N1CCC[C@H]1C(=O)N[C@@H](CO)C(N)=O)C(C)C [Example 110] (H-Y[Aib]EGTFISDYSI[αMeL]LDKIHQ[Aib]DFVE[4Pal]K([AEEA-AEEA-γGlu-C18 diacid])LEGGPSSGAPPPS-NH2)	0.0071 nM	> 5000 nM	> 5000 nM
